The nature of series [1]: Kinetic solubility (nephelometry). The note with it: 37 °C, aqueous buffer, kinetic from dmso stock; 1:99 DMSO/PSB buffer; PBS pH 7. The format is physicochemical. The protocol: The solubility of selected compounds was evaluated by following a previously described method. A 10 mM stock solution of the compound was serially diluted in 100% DMSO and 2.5 μL of this solution was added to a 384-well UV-transparent plate (Greiner) containing 47.5 μL of PBS (pH = 7). The plate was incubated at 37 °C for 4 h and the light scattering was measured in a Nephelostar plus reader (BMG LABTECH). The data was fitted to a segmented linear regression for measuring the compound solubility.

Series [2] in a line: Human microsomal stability. The format is in vitro ADME. The note with it: for microsomal stability % remanent: Human, sampling time 60 min; for microsomal CLint / half-life: human, liver microsomes, pH 7.4; for half-life: read-out: microsomal stability t1/2. The protocol: The human microsomal stability of selected compounds was evaluated by following a previously described method. The human microsomes employed were purchased from Tebu-Xenotech. The compound was incubated with the microsomes at 37 °C in a 50 mM phosphate buffer (pH = 7.4) containing 3 mM MgCl2, 1 mM NADP, 10 mM glucose-6-phosphate and 1 U/mL glucose-6-phosphate-dehydrogenase. Samples (75 μL) were taken from each well at 0, 10, 20, 40, and 60 min and transferred to a plate containing 4 °C 75 μL acetonitrile and 30 μL of 0.5% formic acid in water were added for improving the chromatographic conditions. The plate was centrifuged ([…], 30 min) and supernatants were taken and analyzed in an UPLC-MS/MS (Xevo-TQD, Waters) by employing a BEH C18 column and an isocratic gradient of 0.1% formic acid in water: 0.1% formic acid acetonitrile (60:40). The metabolic stability of the compounds was calculated from the logarithm of the remaining compounds at each of the time point studied.

The nature of series [3]: Mouse microsomal stability. The note with it: for microsomal stability % remanent: Mouse, sampling time 60 min; for microsomal CLint / half-life: mouse, microsomes, pH 7.4; for half-life: read-out: microsomal stability t1/2. The format is in vitro ADME.
A further series deals with SH-SY5Y cells. The series can be described thus: Neurite length in differentiated SH-SY5Y cells transfected with MAPT P301L + APP V717I. The format is cell-based, human. To be noted: for neuroprotective effect in presence of CB2R antagonist SR144528: 100 and 10 nM, SR144528 1 μM. The text has this:
Finally, to further validate these effects, a neuron-like in vitro model using differentiated SH-SY5Y cells was employed (Figure ). […] To simulate neurodegenerative conditions, cells were transiently transfected with expression plasmids encoding the MAPT P301L and APP V717I mutations. The MAPT P301L mutation promotes pathological tau hyperphosphorylation and aggregation, leading to microtubule destabilization, impaired axonal transport, and neurite retraction. , Meanwhile, the APP V717I mutation increases the production of long, aggregation-prone amyloidogenic peptides, disrupting cellular homeostasis through oxidative stress and cytoskeletal disorganization. ,
SH-SY5Y human neuroblastoma-derived cells (ECACC, 94030304) were cultured and differentiated in black 384-well plates (Revvity, 6057300). Plates were treated with laminin (1:500 dilution in PBS; Merck, L2020) by adding 25 μL per well and incubated for 2 h at room temperature. Subsequently, plates were washed three times with PBS. Cells were seeded at a density of 6.6 × 10^3 cells per well (in 50 μL) in culture medium. The base culture medium consisted of RPMI-1640 (Gibco, 61870) supplemented with 2% (v/v) fetal bovine serum (FBS; Merck, F7524), 1% (v/v) penicillin-streptomycin (P/S; Merck, P0781), and 0.1% (v/v) gentamicin (Merck, G1397).
Differentiation was initiated 24 h after plating. The culture medium was replaced with a differentiation medium composed of RPMI-1640 supplemented with 2% (v/v) FBS, 1% (v/v) P/S, 0.1% (v/v) gentamicin, and 10 μM all-trans retinoic acid (RA; Merck, R2625). Medium changes were performed every 3 days, and the plates were kept covered with aluminum foil to protect retinoic acid from light exposure. Six days later, cells were transfected with expression plasmids encoding MAPT P301L and APP V717I mutations employing Lipofectamine LTX (Thermo Fisher, 15338100) at a 1:2 proportion in Opti-MEM (Gibco, 11058-021) following the instructions of the manufacturer. After 6 h, the transfection medium was replaced with a differentiation medium composed of RPMI-1640, B27 supplement (1:50; Gibco, 17504), 1% (v/v) P/S, 0.1% (v/v) gentamicin, and 100 nM GLP-1 (Merck, G9416). 24 h later, test compounds were added using an Echo 650T acoustic dispenser (Labcyte) from a 10 mM stock solution in DMSO (Merck, D8418).
48 h after compound dispensation, cells were fixed with 4% paraformaldehyde (50 μL per well, Santa Cruz BT, sc-281692) for 20 min at 4 °C. Wells were then washed twice with HBSS (50 μL per wash, Merck, H8264) and incubated with 50 μL of blocking buffer for 30 min at room temperature. The blocking buffer consisted of HBSS supplemented with 5% BSA (w/v) (Merck, 10775835001) and 0.1% (v/v) Triton X-100 (Merck, T8787). After blocking, cells were incubated with an antibeta-tubulin antibody conjugated to Alexa Fluor 488 (1:500; BD Biosciences, 558605) and Draq5 nuclear stain (2.5 μM; Abcam, ab108410) diluted in blocking buffer. After incubation in the dark at room temperature, wells were washed once with 50 μL of HBSS and subsequently filled with 50 μL of blocking buffer prior to imaging.Images were acquired using an Operetta CLS High Content Screening System (Revvity) equipped with a 20× water-immersion objective. Fluorescent signals were detected using specific excitation/emission filter settings for each fluorophore: Alexa Fluor 488 (λex = 460–490 nm; λem = 500–550 nm) and Draq5 (λex = 615–645 nm; λem = 655–760 nm). For each well, nine nonoverlapping fields were captured under identical acquisition settings. Neurite length and complexity were quantified using Harmony software (version 4.9.2137.273; Revvity), applying a predefined analysis algorithm optimized for β-tubulin immunostaining. For each experiment, data were normalized to the average neurite length measured in the double-transfected condition (MAPT P301L + APP V717I) treated with vehicle, which was assigned a reference value of 100%. […]

The next series deals with CB1R (Homo sapiens, UniProt P21554). Kind of series: CB1R Gi protein-mediated cAMP inhibition assay. The format is cell-based. To be noted: for functional selectivity ratio: CB1R vs CB2R cAMP EC50. From the text:
Given their excellent CB2R functional activity and ability to cross the blood–brain barrier, compounds 18p and 18o were selected for CB1R functional evaluation to assess potential risks of CB1R-mediated central effects. […] Full CB1R dose–response curves are provided in the Supporting Information (Figure S6).

Values after ≈ are worked out from the molar mass of the structure shown.

Sequence of CB1R (P21554 whole entry): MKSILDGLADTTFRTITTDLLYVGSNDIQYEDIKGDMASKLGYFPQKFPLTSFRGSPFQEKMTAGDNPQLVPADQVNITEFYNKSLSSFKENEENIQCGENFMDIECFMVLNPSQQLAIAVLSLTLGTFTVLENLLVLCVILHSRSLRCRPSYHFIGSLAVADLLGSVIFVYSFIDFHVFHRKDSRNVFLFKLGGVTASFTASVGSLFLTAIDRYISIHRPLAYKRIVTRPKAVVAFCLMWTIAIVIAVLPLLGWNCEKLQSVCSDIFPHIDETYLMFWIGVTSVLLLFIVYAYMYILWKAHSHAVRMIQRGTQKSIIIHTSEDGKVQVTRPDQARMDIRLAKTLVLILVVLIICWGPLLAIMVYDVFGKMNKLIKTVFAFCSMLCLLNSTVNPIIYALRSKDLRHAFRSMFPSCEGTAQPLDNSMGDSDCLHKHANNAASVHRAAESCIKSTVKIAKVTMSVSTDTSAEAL

Turning to `NC(=O)[C@@H]1CCCCN1C(=O)c1cn(CC2CCCCC2)c2ccccc12` [18e], in series [1], the solubility at 4 h was 40.1 µM (≈ 14.7 µg/mL). Besides, the “microsomal stability % remanent” value in series [2] turned out to be 15.9%; in series [3], 22.3%. Moreover, the values for the microsomal CLint in series [2] and in series [3] were 67.3 µL/min/mg and 54.3 µL/min/mg, respectively. Further, the half-life was found to be 19.4 min in series [2] and 21.8 min in series [3]. Besides, the entries for the “protective effect against neurite shortening” value with SH-SY5Y cells (1 nM) and in the series with SH-SY5Y cells (10 nM to 1 μM) were “neither compound produced a statistically significant effect” and “significant concentration-dependent protective effect”, respectively. In addition, in the series with SH-SY5Y cells, the “neuroprotective effect in presence of CB2R antagonist SR144528” value is reported as “reversed”.

In series [1], `NC(=O)[C@@H]1CCCCN1C(=O)c1nn(Cc2ccc(F)cc2)c2ccccc12` [18o] registered a solubility at 4 h of 43.7 µM (≈ 16.6 µg/mL). In addition, in series [2], the “microsomal stability % remanent” value stood at 59.6%, the microsomal CLint turned out to be 11.8 µL/min/mg and the half-life came to 50.9 min. Also, in series [3], the “microsomal stability % remanent” value is recorded as 28.4%, the microsomal CLint was determined as 26.1 µL/min/mg and the half-life is 28 min. At CB1R, the EC50 was determined as 1070 ± 57 nM, the Emax amounted to 36% and the functional selectivity ratio is listed as greater than 1780. The “protective effect against neurite shortening” value with SH-SY5Y cells (1 nM) is listed as “neither compound produced a statistically significant effect”. For the same compound, the “protective effect against neurite shortening” value in the series on SH-SY5Y cells (10 nM to 1 μM) is on record as “significant concentration-dependent protective effect”. For the same compound, the “neuroprotective effect in presence of CB2R antagonist SR144528” value in the series on SH-SY5Y cells is recorded as “reversed”.

As to `NC(=O)[C@H]1CCCCN1C(=O)c1nn(Cc2ccc(F)cc2)c2ccccc12` [18p], on CB1R, the response was half-maximal at 755 ± 31 nM (EC50), the Emax turned out to be 45% and the functional selectivity ratio was determined as 111.

Source of the values: PMC12406204 (Journal of Medicinal Chemistry, 2025).
